Source: PMC3583015 (Drug metabolism reviews, 2013)
Substitutions are numbered along the chain they refer to.

Tests used:
T248E/K277Q form of PXR = conditions: ref Wang et al., 2007; cited from earlier work
PXR [1] = target: T1, PXR (Homo sapiens, UniProt O75469); conditions: sustained for at least 48–72 hours; ref Fuchs et al., 2012; cited from earlier work
T1 sequence (O75469 1-434): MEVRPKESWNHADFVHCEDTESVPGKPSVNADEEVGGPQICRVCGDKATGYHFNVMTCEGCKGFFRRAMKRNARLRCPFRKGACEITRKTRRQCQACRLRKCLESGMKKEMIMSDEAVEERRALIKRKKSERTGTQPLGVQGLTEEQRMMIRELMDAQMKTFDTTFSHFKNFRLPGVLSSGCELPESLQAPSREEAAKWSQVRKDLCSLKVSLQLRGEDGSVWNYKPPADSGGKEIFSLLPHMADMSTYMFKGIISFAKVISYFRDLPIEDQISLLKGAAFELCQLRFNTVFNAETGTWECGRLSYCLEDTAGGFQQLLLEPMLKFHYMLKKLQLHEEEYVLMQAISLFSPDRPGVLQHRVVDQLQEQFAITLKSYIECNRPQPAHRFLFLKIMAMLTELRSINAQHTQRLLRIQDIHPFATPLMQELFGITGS

[2] = test system: constitutively active pocket-filling mutants of PXR; assay: antagonism of constitutively active pocket-filling mutants of PXR; format: cell-based; conditions: double and triple mutant forms
Q272H PXR = target: T2, Q272H PXR (Homo sapiens, UniProt O75469, Q272H); assay: yeast two-hybrid screen of PXR mutants; format: cell-based; conditions: Q272H mutation at the surface AF-2 site
T2 sequence (O75469 1-434 Q272H): T1 sequence (O75469 1-434) with Q272H

PXR LBD = conditions: ref Xue et al., 2007; cited from earlier work
PXR [3] = conditions: ref Poulton et al., 2012; cited from earlier work

In the case of `CC(=O)N1CCN(c2ccc(OCC3COC(Cn4ccnc4)(c4ccc(Cl)cc4Cl)O3)cc2)CC1` (stereo not drawn) [ketoconazole], the “antagonism of double-mutant T248E/K277Q PXR” value (T248E/K277Q form of PXR) is given as “not susceptible to antagonism”, the “concentration needed to antagonize PXR activation in vivo” value (PXR [1]) is given as greater than 10 µM and the “antagonism of constitutively active pocket-filling PXR mutants” value [2] is given as “still susceptible to antagonism”. For the same molecule, the “sensitivity of Q272H PXR to the antagonist” value (Q272H PXR) was “insensitive”.
In the case of `O=S(=O)(c1ccccc1)N(CC(F)(F)F)c1ccc(C(O)(C(F)(F)F)C(F)(F)F)cc1` [T1317, T0901317], the Kd (PXR LBD) is given as 11 nM.
For `C[S+]([O-])CCCCN=C=S` (stereo not drawn) [sulphoraphane, sulforaphane], the “effect in a humanized PXR mouse model” value (PXR [3]) is listed as “absence of effect”.
